Measured values reported in patent US11643403B2 (ILDONG PHARMACEUTICAL CO., LTD., priority 2019, dated 2023).
pEC50, pIC50: −log10 of the molar value.

Legend:
[1] = target: GLP-1 receptor CHO-K1 cells (Homo sapiens (Human), UniProt P43220); assay: cAMP assay (HTRF, CISBIO kit); format: cell-based; conditions: for Emax: CHO-K1, cAMP stimulation ratio, Exendin-4 = 100%
Experimental: A cAMP assay test was performed according to a method optimized based on a protocol provided by a cAMP assay kit manufacturer (CISBIO). […] The cells were incubated at room temperature for 7 minutes. A cAMP-d2 conjugate reagent was prepared by mixing a cAMP conjugate with an elution buffer at a ratio of 1:4. An anti-cAMP cryptate conjugate reagent was prepared by mixing a […] with an elution buffer at a ratio of 1:4. Then, […] of the cAMP-d2 conjugate reagent was added to each of the wells. Subsequently, […] of the anti-cAMP cryptate conjugate reagent was added to each of the wells.

[2] = Intravenous glucose tolerance test (ivGTT) via intravenous administration, plasma insulin ELISA; format: in vivo; conditions: test substance 1 mg/mL/kg intravenously, maximum plasma insulin
Experimental: Before the intravenous glucose tolerance test (ivGTT) was performed, monkeys to be used in the test were fasted for 16 hours. After the fasting, fasting blood sugar was measured on the day of the test, and the monkeys were grouped to minimize blood sugar deviation. Each of the monkeys was fixed on a correction chair and anesthetized. A tube catheter was inserted into a saphenous vein of the monkey immediately before glucose administration (0 minute), and the test substance (1 mg/mL/kg) was administered intravenously. After the drug administration, glucose (0.25 g/kg, 50% dextrose solution 0.5 mL/kg) was intravenously administered through the tube catheter inserted into the vein. […] The separated plasma samples were stored in a frozen state until insulin analysis.
(§1) The frozen plasma samples were slowly thawed on ice. An ELISA test was performed according to a protocol provided with a Monkey insulin ELISA kit (LSBio, Cat No. LS-F10306). An insulin concentration was calculated by drawing a standard curve using the absorbance of the insulin standard and applying the absorbance of each measured sample thereto.

[3] = target: hERG (human ether-a-go-go related gene) potassium channel (Homo sapiens (Human), UniProt Q12809); assay: hERG analysis, automatic whole-cell patch clamp (QPatch 48 HT); format: cell-based; conditions: hERG-expressing CHO-K1 cell line, 1-100 μM, room temperature
Experimental: The inhibition of activity of hERG (human ether-a-go-go related gene) potassium channel by the compounds was evaluated by using an automatic whole-cell patch clamp system (QPatch 48 HT, Sophion Bioscience) that can directly measure the flow of ions through the potassium channel in cells. A CHO-K1 cell line stably expressing human hERG cDNA (Kv11.1, KCNH2) was used. The composition of the intracellular solution (mM) used for the analysis is 70 KF, 60 KCl, 15 NaCl, 5 HEPES, 5 EGTA, 5 MgATP, pH 7.3 by KOH.
The hERG-expressing CHO-K1 cell line was treated with each compound at five concentrations (1, 3, 10, 30 and 100 μM), and incubated with each test concentration for 5 minutes in duplicate. All experiments were conducted at room temperature. Change in current amplitude through the hERG channel was recorded every 8 seconds.
Stock solution for each compound is prepared in DMSO at 300× the final assay concentrations, and stored at −20° C. until the day of assay. On the day of the experiment, the stock was diluted into an extracellular solution to make final treatment concentration.
The change in hERG current before and after treatment with the test substance was recorded using the automatic whole cell patch clamp, and the hERG inhibition percentage (%) was calculated based on the control group.
In this calculation, an inhibitor dose-response curve analyzed by using a curve fitting program that uses a 4-parameter logistic dose response equation was used.

[4] = Intravenous glucose tolerance test (ivGTT) via oral administration, plasma insulin ELISA; format: in vivo; conditions: test substance 50 mg/5 mL/kg orally 60 minutes before glucose […] iv, maximum plasma insulin
Experimental: Before performing the ivGTT, the monkeys to be used in the test were fasted for 16 hours. After the fasting, fasting blood sugar was measured on the day of the test, and then the monkeys were grouped to minimize blood sugar deviation. On 60 minutes before glucose administration (−60 minutes), each of the monkeys was fixed on a correction chair, and the test substance (50 mg/5 mL/kg) was administered orally using a catheter for oral administration. The monkey fixed on the correction chair was anesthetized, and glucose (0.25 g/kg, 50% dextrose solution 0.5 mL/kg) was intravenously administered through a tube catheter inserted into the vein. […] The separated plasma samples were stored in a frozen state until insulin analysis.
as §1

Chain of GLP-1 receptor CHO-K1 cells (P43220 24-463): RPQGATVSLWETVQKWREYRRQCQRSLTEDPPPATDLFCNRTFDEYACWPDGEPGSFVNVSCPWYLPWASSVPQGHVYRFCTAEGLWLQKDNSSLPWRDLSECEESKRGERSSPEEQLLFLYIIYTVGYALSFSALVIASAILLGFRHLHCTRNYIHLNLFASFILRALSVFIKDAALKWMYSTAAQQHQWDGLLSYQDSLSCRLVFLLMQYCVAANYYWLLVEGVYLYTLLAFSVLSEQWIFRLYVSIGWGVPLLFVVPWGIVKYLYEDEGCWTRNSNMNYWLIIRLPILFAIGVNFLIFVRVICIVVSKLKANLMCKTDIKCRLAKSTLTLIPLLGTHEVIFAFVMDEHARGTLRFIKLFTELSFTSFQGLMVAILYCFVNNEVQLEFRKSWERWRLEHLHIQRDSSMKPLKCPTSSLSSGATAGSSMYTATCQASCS
Chain of hERG (human ether-a-go-go related gene) potassium channel (Q12809 whole entry): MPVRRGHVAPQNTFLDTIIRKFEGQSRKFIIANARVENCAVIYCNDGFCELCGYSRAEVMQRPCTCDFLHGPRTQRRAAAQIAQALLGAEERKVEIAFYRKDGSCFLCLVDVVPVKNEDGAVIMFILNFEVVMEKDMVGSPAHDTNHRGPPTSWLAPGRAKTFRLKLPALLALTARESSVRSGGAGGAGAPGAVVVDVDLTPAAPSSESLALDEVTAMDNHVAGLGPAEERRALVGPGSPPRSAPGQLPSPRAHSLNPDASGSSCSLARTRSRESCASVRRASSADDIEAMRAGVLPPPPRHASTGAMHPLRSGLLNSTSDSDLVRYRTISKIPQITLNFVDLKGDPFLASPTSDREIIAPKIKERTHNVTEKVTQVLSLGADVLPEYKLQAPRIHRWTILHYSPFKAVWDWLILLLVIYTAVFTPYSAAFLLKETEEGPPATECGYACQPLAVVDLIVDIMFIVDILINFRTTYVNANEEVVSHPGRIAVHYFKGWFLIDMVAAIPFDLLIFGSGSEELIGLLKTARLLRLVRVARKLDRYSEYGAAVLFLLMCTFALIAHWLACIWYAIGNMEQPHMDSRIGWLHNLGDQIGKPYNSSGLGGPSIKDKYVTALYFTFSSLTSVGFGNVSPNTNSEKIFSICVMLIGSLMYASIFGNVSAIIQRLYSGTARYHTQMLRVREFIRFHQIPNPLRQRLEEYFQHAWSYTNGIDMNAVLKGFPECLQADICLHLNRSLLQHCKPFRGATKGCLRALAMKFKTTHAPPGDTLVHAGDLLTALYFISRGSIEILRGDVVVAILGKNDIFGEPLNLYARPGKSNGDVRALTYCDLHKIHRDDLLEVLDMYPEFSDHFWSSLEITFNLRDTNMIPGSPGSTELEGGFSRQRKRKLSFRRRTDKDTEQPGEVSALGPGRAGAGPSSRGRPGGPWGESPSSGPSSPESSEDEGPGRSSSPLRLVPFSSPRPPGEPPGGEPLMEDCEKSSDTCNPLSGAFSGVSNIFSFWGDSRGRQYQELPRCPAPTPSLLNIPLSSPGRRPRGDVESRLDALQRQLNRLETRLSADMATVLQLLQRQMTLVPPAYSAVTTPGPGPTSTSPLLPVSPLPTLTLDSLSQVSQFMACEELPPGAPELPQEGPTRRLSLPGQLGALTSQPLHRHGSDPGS

SMILES | pEC50 [1] | Emax [1] [%] | Monkey ivGTT (iv) insulinmax (IU/mL) [2] | pIC50 [3] | Monkey ivGTT (po) insulinmax [4]
O=C(O)c1ccc2nc(CN3CCC(c4cccc(OCc5ncc(Cl)cc5F)c4)CC3)n(C[C@@H]3CCO3)c2c1 [Example 10, (S)-2-((4-(3-((5-chloro-3-fluoropyridin-2-yl)methoxy)phenyl)piperidin-1-yl)methyl)-1-(oxetane-2-ylmethyl)-1H-benzo[d]imidazole-6-carboxylic acid] | 7.00 to 7.30 | 96.4 | – | – | –
N#Cc1ccc(COc2cccc(N3CCN(Cc4nc5ccc(C(=O)O)cc5n4C[C@@H]4CCO4)CC3)c2)nc1 [Example 14, (S)-2-((4-(3-((5-cyanopyridin-2-yl)methoxy)phenyl)piperazin-1-yl)methyl)-1-(oxetan-2-ylmethyl)-1H-benzo[d]imidazole-6-carboxylic acid] | > 7.30 | 91.4 | + (a maximum insulin concentration is 200˜250 IU/mL) | < 4.00 | –
N#Cc1ccc(COc2cccc(N3CCN(Cc4nc5ccc(C(=O)O)nc5n4C[C@@H]4CCO4)CC3)c2)nc1 [Example 13, (S)-2-((4-(3-((5-cyanopyridin-2-yl)methoxy)phenyl)piperazin-1-yl)methyl)-3-(oxetan-2-ylmethyl)-3H-imidazo[4,5-b]pyridine-5-carboxylic acid] | > 7.30 | 128 | + (a maximum insulin concentration is 200˜250 IU/mL) | < 4.00 | –
C[C@H]1CN(c2cccc(OCc3ccc(C#N)cn3)n2)CCN1Cc1nc2ccc(C(=O)O)cc2n1C[C@@H]1CCO1 [Example 1, 2-(((S)-4-(6-((5-cyanopyridin-2-yl)methoxy)pyridin-2-yl)-2-methylpiperazin-1-yl)methyl)-1-(((S)-oxetan-2-yl)methyl)-1H-benzo[d]imidazole-6-carboxylic acid] | > 7.30 | 104 | ++ (a maximum insulin concentration is greater than 250 IU/mL) | < 4.00 | + (a maximum insulin concentration is 50˜100 IU/mL)
O=C(O)c1ccc2nc(CN3CCN(c4cccc(OCc5ccc(Cl)cn5)n4)CC3)n(C[C@@H]3CCO3)c2c1 [Example 17, (S)-2-((4-(6-((5-chloropyridin-2-yl)methoxy)pyridin-2-yl)piperazin-1-yl)methyl)-1-(oxetane-2-ylmethyl)-1H-benzo [d]imidazole-6-carboxylic acid] | > 7.30 | 101 | + (a maximum insulin concentration is 200˜250 IU/mL) | < 4.00 | –
C[C@H]1CN(c2cccc(OCc3ccc(C#N)cn3)n2)CCN1Cc1nc2ccc(C(=O)O)nc2n1C[C@@H]1CCO1 [Example 6, 2-(((S)-4-(6-((5-cyanopyridin-2-yl)methoxy)pyridin-2-yl)-2-methylpiperazin-1-yl)methyl)-3-(((S)-oxetan-2-yl)methyl)-3H-imidazo[4,5-b]pyridine-5-carboxylic acid] | – | – | ++ (a maximum insulin concentration is greater than 250 IU/mL) | < 4.00 | + (a maximum insulin concentration is 50˜100 IU/mL)
N#Cc1ccc(COc2cccc(N3CCN(Cc4nc5ccc(C(=O)O)nc5n4C[C@@H]4CCO4)CC3)n2)nc1 [Example 5, (S)-2-((4-(6-((5-cyanopyridin-2-yl)methoxy)pyridin-2-yl)piperazin-1-yl)methyl)-3-(oxetane-2-ylmethyl)-3H-imidazo[4,5-b]pyridine-5-carboxylic acid] | 7.00 to 7.30 | 111 | – | – | –
O=C(O)c1ccc2nc(CN3CCN(c4cccc(OCc5ncc(Cl)cc5F)n4)CC3)n(C[C@@H]3CCO3)c2c1 [Example 16, (S)-2-((4-(6-((5-chloro-3-fluoropyridin-2-yl)methoxy)pyridin-2-yl)piperazin-1-yl)methyl)-1-(oxetan-2-ylmethyl)-1H-benzo[d]imidazole-6-carboxylic acid] | > 7.30 | 102 | – | < 4.00 | –
N#Cc1ccc(COc2cccc(N3CCN(Cc4nc5ccc(C(=O)O)cc5n4C[C@@H]4CCO4)CC3)n2)nc1 [Example 2, (S)-2-((4-(6-((5-cyanopyridin-2-yl)methoxy)pyridin-2-yl)piperazin-1-yl)methyl)-1-(oxetan-2-ylmethyl)-1H-benzo [d]imidazole-6-carboxylic acid] | > 7.30 | 108 | – | < 4.00 | ++ (a maximum insulin concentration is greater than 100 IU/mL)
